From patent publication US9364465B2, “Thiazolidinediones of omega-3 polyunsaturated acids as new insulin sensitizers for treating type2 diabetes” (Jiva Pharma, Inc., priority 2013, dated 2016)
Read-outs that look alike come from different tables or passages of the source.

Molecular target: T1, PPARγ (Homo sapiens, UniProt P37231)
T1 construct: expressed in transfected cells
T1 sequence (P37231 238-503 limits assumed): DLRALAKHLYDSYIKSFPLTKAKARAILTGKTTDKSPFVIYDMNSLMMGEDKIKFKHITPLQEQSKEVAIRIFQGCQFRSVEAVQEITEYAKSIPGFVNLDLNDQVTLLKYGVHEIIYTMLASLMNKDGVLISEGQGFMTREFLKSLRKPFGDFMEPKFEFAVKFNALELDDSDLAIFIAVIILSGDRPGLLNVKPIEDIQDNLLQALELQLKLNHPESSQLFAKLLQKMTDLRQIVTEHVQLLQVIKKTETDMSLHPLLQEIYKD
Assay: cell-based chimeric receptor transcription assay (PPAR ligand binding domain fused to GAL4 DNA binding domain, GAL4-regulated luciferase reporter)
Conditions: for RE: RE Conc. 16 μM
Method: To determine if these compounds can activate PPARγ or the members of the PPAR family of nuclear receptors (PPARα and PPARδ), the ability of these compounds to activate PPAR receptors in a cell-based chimeric receptor transcription assay were tested. This is a standard nuclear receptor ligand activity assay that utilizes the ligand binding domain of the PPAR receptor fused to a heterologous GAL4 DNA binding domain. The transcriptional read-out is from a GAL4-regulated luciferase reporter. In this assay, compounds that activate the receptor cause an increase in luciferase activity measured in a luminometer. The data are shown in Table 1 below (average luciferase values from transcription assay).

[1] = 1.02 μM conc., * above background
[2] = 2.6 μM conc., * above background
[3] = 6.4 μM conc., * above background
[4] = 16 μM conc., * above background
[5] = 40 μM conc., * above background
[6] = calculated EC50, PPARγ agonist assay, Table 2, read-out: EC50
[7] = read-out: activation of PPARγ, potency (EC50)

average luciferase values from transcription assay (0.16 μM conc.) | average luciferase values from transcription assay (0.41 μM conc.) | average luciferase values from transcription assay [1] | average luciferase values from transcription assay [2] | average luciferase values from transcription assay [3] | average luciferase values from transcription assay [4] | average luciferase values from transcription assay [5] | RE | EC50 [6] | EC50 [7] | SMILES
106 | 145 | 167* | 207* | 623* | 1454* | 1868* | 1354 | 9.7 µM | 10 µM | CC/C=C\C/C=C\C/C=C\C/C=C\C/C=C\C/C=C\CCCC1SC(=O)NC1=O (centres unmarked) [DHA-TZ, 5-((4Z,7Z,10Z,13Z,16Z,19Z)-docosa-4,7,10,13,16,19-hexaenyl)thiazolidine-2,4-dione]
 |  |  |  |  |  |  |  | > 100 µM |  | CC/C=C\C/C=C\C/C=C\C/C=C\C/C=C\CCCC(=O)OCC [EPA Et Ester, eicosapentaenoic acid ethyl ester, reference compound]
128 | 123 | 164* | 297* | 705* | 1416* | 48^ | 1316 |  | 12 µM | CC/C=C\C/C=C\C/C=C\C/C=C\C/C=C\CCCCC1SC(=O)NC1=O (centres unmarked) [EPA-TZ, 5-((5Z,8Z,11Z,14Z,17Z)-eicosa-5,8,11,14,17-pentaenyl)thiazolidine-2,4-dione]
